Measurements taken from patent US20080026088A1, “Reduced isoalpha acid based protein kinase modulation cancer treatment” (Metaproteomics, LLC, priority 2006, published 2008).
Converted amounts (≈) assume the structure as drawn. Like-named read-outs stand apart in the source and are kept apart here. Marks after values point to notes of the source that are not given here.

How the values were obtained:
[1] = tested on: LPS-stimulated 3T3-L1 adipocytes; experiment: IL-6 secretion in LPS/3T3-L1 adipocytes; assay type: cell-based, murine; details: 100 ng LPS/ml, D5 3T3-L1 adipocytes
[2] = tested on: LPS-treated 3T3-L1 adipocytes; experiment: Adiponectin secretion in LPS/3T3-L1 adipocytes; assay type: cell-based, murine; details: for Maximum adiponectin stimulation: 100 ng/ml LPS, D5 3T3-L1; for Concentration of maximum stimulation of adiponectin secretion: LPS/3T3-L1 adipocytes; for Emax: Mus musculus, 3T3-L1, at the concentration of maximum stimulation (c1), NS = not significantly different from the LPS control
[3] = tested on: insulin-resistant 3T3-L1 adipocytes; experiment: Adiponectin secretion from insulin-resistant 3T3-L1 adipocytes; assay type: cell-based, murine; details: for Adiponectin/IL-6: ratio of Adiponectin Index to IL-6 Index, insulin-resistant 3T3-L1 adipocytes; for EC50: Mus musculus; for Maximum Adiponectin Secretion: estimated from the y-intercept of Hofstee plots; for dose at which maximal adiponectin secretion was observed: of four doses tested
[4] = tested on: TNFα-treated 3T3-L1 adipocytes; experiment: Adiponectin secretion from TNFα-treated 3T3-L1 adipocytes; assay type: cell-based, murine
Procedure: For two days, the cells were allowed grow to reach confluence. […] (3) 0.5 μM dexamethasone and (4) 10 μg/ml insulin (MDI medium). […] Adiponectin Assay—The adiponectin secreted into the medium was quantified using the Mouse Adiponectin Quantikine® Immunoassay kit with no modifications (R&D Systems, Minneapolis, Minn.). […] Statistical Calculations and Interpretation—All assays were preformed in duplicate. […] Differences among the doses and test agents were determined using the Student's t-test without correction for multiple comparisons; the nominal five percent probability of a type I error was selected.

[5] = tested on: NF-kBp65 nuclear translocation; experiment: Nuclear NF-kBp65 (TransAM) in TNFα-treated 3T3-L1 adipocytes; assay type: cell-based, murine; details: for inhibition of nuclear translocation of NF-kBp65 / inhibition at 5 µg/mL: 5.0 μg/ml; for inhibition at […] / inhibition at 5 µg/mL: Mus musculus; for inhibition at […]: 2.5 μg/ml
Procedure: Cell Culture and Treatment—Following differentiation 3T3-L1 adipocytes were maintained in post-differentiation medium for an additional 40 days. […] Hops derivatives and the positive control pioglitazone were tested at concentrations of 2.5, and 5.0 μg/ml. Test materials were added 1 hour prior to and nuclear extracts were prepared three and 24 hours following treatment with TNFα.
ELISA—3T3-L1 adipocytes were maintained in growth media for 40 days following differentiation. Nuclear NF-kBp65 was determined using the TransAM™ NF-kB kit from Active Motif (Carlsbad, Calif.) was used with no modifications. Jurkat nuclear extracts provided in the kit were derived from cells cultured in medium supplemented with 50 ng/ml TPA (phorbol, 12-myristate, 13 acetate) and 0.5 μM calcium ionophore A23187 for two hours at 37° C. immediately prior to harvesting.
Protein assay—Nuclear protein was quantified using the Active Motif Fluorescent Protein Quantification Kit.

[6] = tested on: TNFα-treated 3T3-L1 adipocytes; experiment: IL-6 secretion from TNFα-treated 3T3-L1 adipocytes; assay type: cell-based, murine; details: for IL-6 Index: D5 3T3-L1 adipocytes, indexed to TNFα control
3T3-L1 adipocytes = experiment: Lipogenesis (Oil Red O / BODIPY) in 3T3-L1 adipocytes; assay type: cell-based, murine; details: 50 μg test material/ml
Procedure: Prior to experiments, cells were cultured in DMEM containing 10% FBS-HI added 50 units penicillin/ml and 50 μg streptomycin/ml, and maintained in log phase prior to experimental setup. Cells were grown in a 5% CO2 humidified incubator at 37° C. Components of the pre-confluent medium included (1) 10% FBS/DMEM containing 4.5 g glucose/L; (2) 50 U/ml penicillin; and (3) 50 μg/ml streptomycin. Growth medium was made by adding 50 ml of heat inactivated FBS and 5 ml of penicillin/streptomycin to 500 ml DMEM. This medium was stored at 4° C. Before use, the medium was warmed to 37° C. in a water bath.
3T3-T1 cells were seeded at an initial density of 6×10^4 cells/cm^2 in 24-well plates. For two days, the cells were allowed grow to reach confluence. […]
Oil Red O Staining—Triglyceride content of D6/D7-differentiated 3T3-L1 cells was estimated with Oil Red O according to the method of Kasturi and Joshi [Kasturi, R. and Joshi, V. C. […] The resulting stained oil droplets were extracted from the cells with isopropanol and quantified by spectrophotometric analysis at 540 nm (MEL312e BIO-KINETICS READER, Bio-Tek Instruments, Winooski, Vt.). […]

[7] = Non-fasting serum glucose and insulin in db/db diabetic mice; assay type: in vivo, mouse; details: three consecutive days
Procedure: The Model—Male, C57BLKS/J m^+/m^+Lepr^db (db/db) mice were used to assess the potential of the test materials to reduce fasting serum glucose or insulin concentrations. This strain of mice is resistant to leptin by virtue of the absence of a functioning leptin receptor.
Testing Procedure—Test substances were administered daily by gavage in 0.2% Tween-80. Serum was collected from the retroorbital sinus before the initial dose and ninety minutes after the third and final dose. Non-fasting serum glucose was determined enzymatically by the mutarotase/glucose oxidase method and serum insulin was determined by a mouse specific ELISA.
The Model—Male, C57BLKS/J m+/m+ Leprdb (db/db) mice were used to assess the potential of the test materials to reduce fasting serum glucose or insulin concentrations. This strain of mice is resistant to leptin by virtue of the absence of a functioning leptin receptor.
Testing Procedure—Test substances were administered daily by gavage in 0.2% Tween-80. Serum was collected from the retroorbital sinus before the initial dose and ninety minutes after the fifth and final dose. Non-fasting serum glucose was determined enzymatically by the mutarotase/glucose oxidase method and serum insulin was determined by a mouse specific ELISA.

[8] = Collagen induced rheumatoid arthritis murine model; assay type: in vivo, mouse; details: 10 mg/kg
[9] = tested on: RL 95-2 endometrial cancer cells; experiment: Cancer cell proliferation, CyQuant; assay type: cell-based; details: Homo sapiens, RL95-2; 10 μg/ml, 72 hours; read-out: inhibition of cell proliferation relative to the DMSO solvent control
Procedure: Methods—The inhibitory effects of test compounds of the present invention on cancer cell proliferation were examined in the RL 95-2 endometrial cancer cell model (an over expressor of AKT kinase), and in the HT-29 (constitutively expressing COX-2) and SW480 (constitutively expressing activated AKT kinase) colon cancer cell models. Briefly, the target cells were plated into 96 well tissue culture plates and allowed to grow until subconfluent. The cells were then treated for 72 hours with various amounts of the test compounds as described in Example 4 and relative cell proliferation determined by the CyQuant (Invitrogen, Carlsbad, Calif.) commercial fluorescence assay.

[10] = tested on: A549 pulmonary epithelial cells; experiment: Mite dust allergen stimulated PGE2 biosynthesis in A549 cells; assay type: cell-based, human; details: 10 μg/ml, added 60 min before mite dust allergen 1000 ng/ml, 18 h
Text: Mite dust allergen isolation—Dermatophagoides farinae is the American house dust mite. D. farinae were raised on a 1:1 ratio of Purina Laboratory Chow (Ralston Purina, Co, St. Louis, Mo.) and Fleischmann's granulated dry yeast (Standard Brands, Inc. New York, N.Y.) at room temperature and 75% humidity. Live mites were aspirated from the culture container as they migrated from the medium, killed by freezing, desiccated and stored at 0% humidity. The allergenic component of the mite dust was extracted with water at ambient temperature. Five-hundred mg of mite powder were added to 5 ml of water (1:10 w/v) in a 15 ml conical centrifuge tube (VWR, Rochester, N.Y.), shaken for one minute and allowed to stand overnight at ambient temperature. The next day, the aqueous phase was filtered using a 0.2 μm disposable syringe filter (Nalgene, Rochester, N.Y.). The filtrate was termed mite dust allergen and used to test for induction of PGE2 biosynthesis in A549 pulmonary epithelial cells.
Cell culture and treatment—The human airway epithelial cell line, A549 (American Type Culture Collection, Bethesda, Md.) was cultured and treated as previously described in Example 6. Mite allergen was added to the culture medium to achieve a final concentration of 1000 ng/ml. Eighteen hours later, the media were sampled for PGE2 determination.

[11] = Mus musculus, 3T3-L1, 1.0 μg/ml, with 10 ng TNFα/ml, read-out: % Inhibition of IL-6 secretion
[12] = 3T3-L1, 3 h, three hours post TNFα

## CC(=O)Oc1ccccc1C(=O)O [Aspirin]
[1]
  Concentration providing the maximum inhibition of IL-6 secretion: 25.0 µg/mL
[2]
  Maximum adiponectin stimulation: failed to induce adiponectin secretion
  Concentration of maximum stimulation of adiponectin secretion: 113 µg/mL
  Emax: < 7%

## CC(C)CCC1=C(O)C(C(=O)C(C)C)=C(O)C(CCC(C)C)(CCC(C)C)C1=O [Hexahydrocolupulone (HHCL)]
[3]; 50.0 μg/ml
  Adiponectin/IL-6: 0.60#

## COc1ccc2c(c1)c(CC(=O)O)c(C)n2C(=O)c1ccc(Cl)cc1 [Indomethacin, indomethacin]
[2]
  Maximum adiponectin stimulation: 9%

## CCc1ccc(CCOc2ccc(CC3SC(=O)NC3=O)cc2)nc1 (centres unmarked) [Pioglitazone]
[4]; 10 ng TNFα/ml
  Concentration of maximum adiponectin secretion: 1.25 µg/mL
  maximum increase of adiponectin secretion over the TNFα control: 80%
[4]; 1.0 μg/ml, TNFα/3T3-L1 model, indexed to TNFα control (Table 26)
  Adiponectin Index Observed: 1.80
[4]; Table 16, 10 ng TNFα/ml
  Concentration of maximum adiponectin secretion: 1.25 µg/mL
[4]; Table 16, maximum over four doses, 10 ng TNFα/ml
  Adiponectin Index: 1.47
[1]
  Concentration providing the maximum inhibition of IL-6 secretion: 5.00 µg/mL
[2]
  Maximum adiponectin stimulation: 12%
  Concentration of maximum stimulation of adiponectin secretion: 1.25 µg/mL
  Emax: 12%
[5]; 24 hours post TNFα
  inhibition of nuclear translocation of NF-kBp65: did not inhibit
[5]; three hours post TNFα
  inhibition of nuclear translocation of NF-kBp65: did not inhibit

## Cc1c(C)c2c(c(C)c1O)CCC(C)(COc1ccc(CC3SC(=O)NC3=O)cc1)O2 (centres unmarked) [Troglitazone]
[4]; 10 ng TNFα/ml
  Concentration of maximum adiponectin secretion: 0.625 µg/mL
  maximum increase of adiponectin secretion over the TNFα control: 51%
[1]
  Concentration providing the maximum inhibition of IL-6 secretion: 10.0 µg/mL
[3]; 5.0 μg/ml
  Adiponectin/IL-6: 1.12
[3]; 3T3-L1, half maximal adiponectin secretion, estimated from the slope of Hofstee plots, insulin-resistant 3T3-L1 cells, read-out: Test Material at Half Maximal Secretion
  EC50: 0.085 µg/mL (≈ 0.193 µM)
[3]; 3T3-L1, slope of modified Hofstee plot, read-out: concentration required for half maximal adiponectin secretion
  EC50: 0.085 µg/mL (≈ 0.193 µM)
[3]; insulin-resistant 3T3-L1 cells
  Maximum Adiponectin Secretion: 2.29 Fold relative to control
[3]; modified Hofstee plot
  Maximum adiponectin secretion estimated from the y-intercept: 2.29 fold
[2]
  Maximum adiponectin stimulation: 15%
  Concentration of maximum stimulation of adiponectin secretion: 0.625 µg/mL
  Emax: 15%
[6]; Mus musculus, 3T3-L1, 1 μg/ml, 10 ng TNFα/ml, read-out: inhibition of IL-6 secretion relative to the controls
  inhibition at 1 µg/mL: 34%
[6]; [11]
  inhibition at 1 µg/mL: 34%

## CC(C)CCC1=C(O)C(C(=O)C(C)C)=C(O)C(CCC(C)C)(CCC(C)C)C1=O [hexahydro colupulone, hexahydrocolupulone]
[3]; insulin-resistant 3T3-L1 cells
  Maximum Adiponectin Secretion: 1.83 Fold relative to control
[3]
  dose at which maximal adiponectin secretion was observed: 12.5 µg/mL
[3]; slope of modified Hofstee plot
  concentration required for half maximal adiponectin secretion: 3.2 µg/mL

## CC(C)Cc1ccc(C(C)C(=O)O)cc1 (centres unmarked) [ibuprofen]
[1]
  Concentration providing the maximum inhibition of IL-6 secretion: 0.625 µg/mL
[2]
  Maximum adiponectin stimulation: 22%
  Concentration of maximum stimulation of adiponectin secretion: 0.625 µg/mL
  Emax: 22%

## CN(C)C(=N)N=C(N)N [metformin, Metformin]
3T3-L1 adipocytes
  lipogenic index (observed): 0.79
[7]
  reduction in serum insulin: 17%
[6]; 1.0 μg/ml, with 10 ng TNFα/ml
  IL-6 Index: 0.91
[6]; 5.0 μg/ml, with 10 ng TNFα/ml
  IL-6 Index: 0.96
[6]; 10 μg/ml, with 10 ng TNFα/ml
  IL-6 Index: 0.78
[6]; 50 μg/ml, with 10 ng TNFα/ml
  IL-6 Index: 0.78
[6]; [11]
  inhibition at 1 µg/mL: 9%
[6]; Mus musculus, 3T3-L1, 5.0 μg/ml, with 10 ng TNFα/ml
  inhibition at 5 µg/mL: 4%
[6]; Mus musculus, 3T3-L1, 10 μg/ml, with 10 ng TNFα/ml
  inhibition at 10 µg/mL: 22%
[6]; Mus musculus, 3T3-L1, 50 μg/ml, with 10 ng TNFα/ml
  inhibition at 50 µg/mL: 22%

## C[C@]12C=CC(=O)C=C1CC[C@@H]1[C@@H]2[C@@H](O)C[C@@]2(C)[C@H]1CC[C@]2(O)C(=O)CO [prednisolone]
[8]
  days with significant reduction of arthritic index: 30 to 42 days

## O=C(O)c1ccccc1O [salicylic acid]
[1]
  Concentration providing the maximum inhibition of IL-6 secretion: 50.0 µg/mL
[2]
  Maximum adiponectin stimulation: failed to induce adiponectin secretion
  Concentration of maximum stimulation of adiponectin secretion: 173 µg/mL
  Emax: < 7%

## COc1cc(O)c(CC=C(C)C)c(O)c1C(=O)/C=C/c1ccc(O)cc1 [xanthohumol]
[3]
  dose at which maximal adiponectin secretion was observed: 1.25 µg/mL
[9]
  inhibition at 10 µg/mL: > 50%
[5]; [12]
  inhibition at […]: 6.9%
  inhibition at 5 µg/mL: 15.6%
[5]; 3T3-L1, 24 hours post TNFα
  inhibition at […]: 8%
  inhibition at 5 µg/mL: 13.4%

## Beta acids
[10]
  Percent PGE2 Inhibition: 83%
